Measured values reported in patent publication US8828696B2, “Use of Penicillin G Procaine as a selective antimicrobial agent in the production of alcohol by fermentation” (Lallemand Specialites, Inc, priority 2008, dated 2014).
Like-named read-outs stand apart in the source and are kept apart here.

System: Saccharomyces cerevisiae yeast
Assay type: cell-based
Protocol: A study was conducted to determine the degree of impact of the fermentation antimicrobial Penicillin G Procaine and Penicillin G potassium during alcohol production by fermentation. The antimicrobial impact was inferred by conducting a series of fermentations and measuring if the above said antibiotics interfered with the cell growth and the fermentation function of Saccharomyces cerevisiae yeast used in the fermentation phase. This study provided analysis of what impact, if any, the Penicillin G Procaine or Penicillin G Potassium has on the yeast during lab scale fermentations, specifically BioFerm® XR yeast from North American Bioproducts Corporation (NABC). This study observed the ability of yeast to replicate and ferment a corn mash substrate with and without the presence of Penicillin G Procaine or Penicillin G Potassium.
This study was set up in a series of fermentation vessels. All antibiotic concentrations were tested in triplicate. Cell counts were done on one flask for each treatment at 12, 24, 36 and 48 hours and testing of the fermentation reactions by HPLC was also performed at 12, 24, 36 and 48 hours. The experiment was set as follows:
1. Antibiotic solutions were prepared to provide a sterile 1 and 10 μg/ml solutions.
2. Antibiotic solutions tested were as follows:
3. Fermentations were set up using 31% solids corn mash using saccharifying enzymes and the following procedure:
A. Yeast Conditioning: • 1. Add 2 g yeast to 10 ml sterile water for each 3 flasks to test, (14 g yeast to 70 ml water) into a sterile 250 ml flask and place in water bath set to 100° F. • 2. Incubate at 100° F. for 30 minutes with occasional mixing. • 3. Remove flasks from water bath and divide suspension between the all flasks for the trial.
B. Fermentation Procedure • 1. To prepared mash, add the following. • a. Add 0.58 g urea/liter mash and mix. • b. Add 0.2 ml GA per liter and mix. • 2. Remove sample for background HPLC testing. • 3. Add antibiotic solution to labeled sterile 250 ml flasks. • 4. Add hydrated yeast suspension to mash and mix well. • 5. Add sterile stir bar to each flask and add about 150 ml mash into each 250 ml flask for a total of 21 flasks. • 6. Cover each flask with a gas trap in a sterilized stopper. • 7. Place in a 33° C. water bath with continuous mixing at 280 rpm at 75% power. • 8. Remove sample at 12 hr interval to perform cell count, viability and budding. • 9. Incubate sample up to 48 hours, enough time for complete fermentation • 10. Collect samples at the following times for cell counts and HPLC testing: 12 hours; 24 hours; 36 hours and 48 hours

[1] = 5 ppm, 12 hours, total cell count x % viability
[2] = 5 ppm, 12 hr fermentation sample
[3] = 5 ppm, 24 hours, total cell count x % viability
[4] = 5 ppm, 24 hr fermentation sample
[5] = 5 ppm, 36 hours, total cell count x % viability
[6] = 5 ppm, 36 hr fermentation sample
[7] = 5 ppm, 48 hours, total cell count x % viability
[8] = 5 ppm, 48 hr fermentation sample
[9] = 5 ppm, average of 12, 24, 36 and 48 hour samples
[10] = 15 ppm, 12 hours, total cell count x % viability
[11] = 15 ppm, 12 hr fermentation sample
[12] = 15 ppm, 24 hours, total cell count x % viability
[13] = 15 ppm, 24 hr fermentation sample
[14] = 15 ppm, 36 hours, total cell count x % viability
[15] = 15 ppm, 36 hr fermentation sample
[16] = 15 ppm, 48 hours, total cell count x % viability
[17] = 15 ppm, 48 hr fermentation sample
[18] = 15 ppm, average of 12, 24, 36 and 48 hour samples
[19] = 30 ppm, 12 hours, total cell count x % viability
[20] = 30 ppm, 12 hr fermentation sample
[21] = 30 ppm, 24 hours, total cell count x % viability
[22] = 30 ppm, 24 hr fermentation sample
[23] = 30 ppm, 36 hours, total cell count x % viability
[24] = 30 ppm, 36 hr fermentation sample
[25] = 30 ppm, 48 hours, total cell count x % viability
[26] = 30 ppm, 48 hr fermentation sample
[27] = 30 ppm, average of 12, 24, 36 and 48 hour samples
[28] = average for all three trials (5, 15, 30 ppm), 12-48 hour samples
[29] = average for all three trials (5, 15, 30 ppm), 12 hours
[30] = average for all three trials (5, 15, 30 ppm), 24 hours
[31] = average for all three trials (5, 15, 30 ppm), 36 hours
[32] = average for all three trials (5, 15, 30 ppm), 48 hours
[33] = average for all three trials (5, 15, 30 ppm), Average 12-48 hours

CC1(C)S[C@@H]2[C@H](NC(=O)Cc3ccccc3)C(=O)N2[C@H]1C(=O)O.CCN(CC)CCOC(=O)c1ccc(N)cc1 [Penicillin G Procaine]
viable yeast cell count [1]: 535 | % B (% budding) [2]: 15.0% | % V (% viability) [2]: 89% | CC (cell count) [2]: 601 | viable yeast cell count [3]: 489 | % B (% budding) [4]: 7.9% | % V (% viability) [4]: 88% | CC (cell count) [4]: 556 | viable yeast cell count [5]: 432 | % B (% budding) [6]: 9.2% | % V (% viability) [6]: 83% | CC (cell count) [6]: 521 | viable yeast cell count [7]: 404 | % B (% budding) [8]: 8.0% | % V (% viability) [8]: 75% | CC (cell count) [8]: 538 | viable yeast cell count (5 ppm, Average 12-48 hours): 465 | A % B (average % budding) [9]: 10.0% | A % V (average % viability) [9]: 83.8% | ACC (average cell count) [9]: 554 | viable yeast cell count [10]: 494 | % B (% budding) [11]: 17.7% | % V (% viability) [11]: 86% | CC (cell count) [11]: 574 | viable yeast cell count [12]: 528 | % B (% budding) [13]: 7.8% | % V (% viability) [13]: 91% | CC (cell count) [13]: 580 | viable yeast cell count [14]: 410 | % B (% budding) [15]: 7.3% | % V (% viability) [15]: 78% | CC (cell count) [15]: 526 | viable yeast cell count [16]: 385 | % B (% budding) [17]: 9.0% | % V (% viability) [17]: 74% | CC (cell count) [17]: 520 | viable yeast cell count (15 ppm, Average 12-48 hours): 454 | A % B (average % budding) [18]: 10.4% | A % V (average % viability) [18]: 82.3% | ACC (average cell count) [18]: 550 | viable yeast cell count [19]: 528 | % B (% budding) [20]: 14.8% | % V (% viability) [20]: 85% | CC (cell count) [20]: 621 | viable yeast cell count [21]: 496 | % B (% budding) [22]: 10.3% | % V (% viability) [22]: 89% | CC (cell count) [22]: 557 | viable yeast cell count [23]: 400 | % B (% budding) [24]: 7.0% | % V (% viability) [24]: 78% | CC (cell count) [24]: 513 | viable yeast cell count [25]: 385 | % B (% budding) [26]: 6.0% | % V (% viability) [26]: 78% | CC (cell count) [26]: 493 | viable yeast cell count (30 ppm, Average 12-48 hours): 452 | A % B (average % budding) [27]: 9.5% | A % V (average % viability) [27]: 82.5% | ACC (average cell count) [27]: 546 | A % B (average % budding) [28]: 10.0% | A % V (average % viability) [28]: 82.8% | ACC (average cell count) [28]: 550 | viable yeast cell count [29]: 519 | viable yeast cell count [30]: 504 | viable yeast cell count [31]: 414 | viable yeast cell count [32]: 391 | viable yeast cell count [33]: 457

CC1(C)S[C@@H]2[C@H](NC(=O)Cc3ccccc3)C(=O)N2[C@H]1C(=O)[O-].[K+] [Penicillin G Potassium]
viable yeast cell count [1]: 510 | % B (% budding) [2]: 13.8% | % V (% viability) [2]: 88% | CC (cell count) [2]: 580 | viable yeast cell count [3]: 500 | % B (% budding) [4]: 8.4% | % V (% viability) [4]: 90% | CC (cell count) [4]: 556 | viable yeast cell count [5]: 421 | % B (% budding) [6]: 8.1% | % V (% viability) [6]: 81% | CC (cell count) [6]: 520 | viable yeast cell count [7]: 381 | % B (% budding) [8]: 8.9% | % V (% viability) [8]: 75% | CC (cell count) [8]: 508 | viable yeast cell count (5 ppm, Average 12-48 hours): 453 | A % B (average % budding) [9]: 9.8% | A % V (average % viability) [9]: 83.5% | ACC (average cell count) [9]: 541 | viable yeast cell count [10]: 469 | % B (% budding) [11]: 13.3% | % V (% viability) [11]: 85% | CC (cell count) [11]: 552 | viable yeast cell count [12]: 465 | % B (% budding) [13]: 7.5% | % V (% viability) [13]: 86% | CC (cell count) [13]: 541 | viable yeast cell count [14]: 435 | % B (% budding) [15]: 6.2% | % V (% viability) [15]: 82% | CC (cell count) [15]: 530 | viable yeast cell count [16]: 372 | % B (% budding) [17]: 7.3% | % V (% viability) [17]: 72% | CC (cell count) [17]: 516 | viable yeast cell count (15 ppm, Average 12-48 hours): 435 | A % B (average % budding) [18]: 8.6% | A % V (average % viability) [18]: 81.3% | ACC (average cell count) [18]: 535 | viable yeast cell count [19]: 535 | % B (% budding) [20]: 12.3% | % V (% viability) [20]: 86% | CC (cell count) [20]: 622 | viable yeast cell count [21]: 462 | % B (% budding) [22]: 8.7% | % V (% viability) [22]: 88% | CC (cell count) [22]: 525 | viable yeast cell count [23]: 401 | % B (% budding) [24]: 8.7% | % V (% viability) [24]: 80% | CC (cell count) [24]: 501 | viable yeast cell count [25]: 393 | % B (% budding) [26]: 6.4% | % V (% viability) [26]: 77% | CC (cell count) [26]: 511 | viable yeast cell count (30 ppm, Average 12-48 hours): 448 | A % B (average % budding) [27]: 9.0% | A % V (average % viability) [27]: 82.8% | ACC (average cell count) [27]: 540 | A % B (average % budding) [28]: 9.1% | A % V (average % viability) [28]: 82.5% | ACC (average cell count) [28]: 539 | viable yeast cell count [29]: 505 | viable yeast cell count [30]: 476 | viable yeast cell count [31]: 419 | viable yeast cell count [32]: 382 | viable yeast cell count [33]: 445
